The text below walks through data of ChEMBL document CHEMBL5042543, “Bridged Piperidine Analogues of a High Affinity Naphthalene-Based P2Y14R Antagonist” (J Med Chem, 2022).

Series [1] has as its target Beta-3 adrenergic receptor (Homo sapiens, UniProt P13945). Kind of series: Inhibition of adrenergic beta 3 receptor (unknown origin) assessed as binding constant.
The target of the next series is Translocator protein (Homo sapiens, UniProt P30536). Kind of series: Inhibition of TSPO receptor (unknown origin) assessed as binding constant.
Chain of Translocator protein (P30536 whole entry): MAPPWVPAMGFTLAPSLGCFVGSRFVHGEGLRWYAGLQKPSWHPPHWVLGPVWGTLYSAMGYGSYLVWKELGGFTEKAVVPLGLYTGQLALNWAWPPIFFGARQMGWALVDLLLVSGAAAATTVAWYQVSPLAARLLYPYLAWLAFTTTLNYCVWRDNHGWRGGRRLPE
The target in series [2] is Sigma non-opioid intracellular receptor 1 (Homo sapiens, UniProt Q99720). Kind of series: Inhibition of sigma 1 receptor (unknown origin) assessed as binding constant.
Chain of Sigma non-opioid intracellular receptor 1 (Q99720 whole entry): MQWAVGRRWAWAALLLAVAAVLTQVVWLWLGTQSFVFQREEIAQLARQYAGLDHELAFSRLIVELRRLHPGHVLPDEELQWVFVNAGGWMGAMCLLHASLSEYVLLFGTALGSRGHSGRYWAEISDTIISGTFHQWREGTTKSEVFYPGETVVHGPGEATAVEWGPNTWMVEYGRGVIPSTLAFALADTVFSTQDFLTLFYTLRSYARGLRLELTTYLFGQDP
Series [3] concerns the target Sigma intracellular receptor 2 (Homo sapiens, UniProt Q5BJF2). In words: Inhibition of sigma 2 receptor (unknown origin) assessed as binding constant.
Another series deals with D(1B) dopamine receptor (Homo sapiens, UniProt P21918). Kind of series: Inhibition of dopamine D5 receptor (unknown origin) assessed as binding constant.
Chain of D(1B) dopamine receptor (P21918 whole entry): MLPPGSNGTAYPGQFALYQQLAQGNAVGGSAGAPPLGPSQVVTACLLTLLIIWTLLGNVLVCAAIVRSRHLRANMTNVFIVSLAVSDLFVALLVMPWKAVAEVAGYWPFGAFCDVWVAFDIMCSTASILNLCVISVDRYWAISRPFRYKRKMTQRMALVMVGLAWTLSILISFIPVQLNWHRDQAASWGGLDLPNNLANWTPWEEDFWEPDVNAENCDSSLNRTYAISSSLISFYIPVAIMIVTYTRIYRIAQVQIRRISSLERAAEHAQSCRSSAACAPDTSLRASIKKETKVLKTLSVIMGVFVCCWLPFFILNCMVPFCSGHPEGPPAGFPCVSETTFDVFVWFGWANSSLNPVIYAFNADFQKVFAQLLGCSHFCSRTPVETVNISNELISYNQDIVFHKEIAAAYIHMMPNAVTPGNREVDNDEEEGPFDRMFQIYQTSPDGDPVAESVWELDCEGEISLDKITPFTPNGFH
The target in a further series is D(3) dopamine receptor (Homo sapiens, UniProt P35462). In words: Inhibition of dopamine D3 receptor (unknown origin) assessed as binding constant.
Chain of D(3) dopamine receptor (P35462 whole entry): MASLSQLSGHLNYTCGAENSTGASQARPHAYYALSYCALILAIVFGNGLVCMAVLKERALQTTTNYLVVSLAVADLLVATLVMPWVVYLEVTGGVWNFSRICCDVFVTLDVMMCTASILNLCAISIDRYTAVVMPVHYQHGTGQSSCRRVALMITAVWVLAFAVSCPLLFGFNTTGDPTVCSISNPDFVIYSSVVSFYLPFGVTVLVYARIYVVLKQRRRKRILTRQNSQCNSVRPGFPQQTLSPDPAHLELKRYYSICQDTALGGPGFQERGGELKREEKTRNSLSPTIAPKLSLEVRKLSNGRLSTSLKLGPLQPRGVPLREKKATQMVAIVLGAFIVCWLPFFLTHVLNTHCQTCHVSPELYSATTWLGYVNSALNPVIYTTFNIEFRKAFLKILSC
A further series concerns the target T1, P2Y purinoceptor 14 (Mus musculus, UniProt Q9ESG6).
T1 sequence (Q9ESG6 whole entry): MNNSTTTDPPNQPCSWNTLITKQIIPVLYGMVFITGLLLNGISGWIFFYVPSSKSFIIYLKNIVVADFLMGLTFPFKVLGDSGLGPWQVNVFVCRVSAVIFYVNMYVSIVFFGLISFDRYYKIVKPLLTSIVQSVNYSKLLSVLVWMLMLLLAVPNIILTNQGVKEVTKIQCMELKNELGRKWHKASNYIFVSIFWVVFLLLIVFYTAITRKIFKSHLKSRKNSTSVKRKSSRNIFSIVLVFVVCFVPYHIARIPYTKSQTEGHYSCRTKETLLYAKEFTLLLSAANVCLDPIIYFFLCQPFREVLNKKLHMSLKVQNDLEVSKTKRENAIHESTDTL
Kind of series: Inhibition of fluorescent antagonist binding to mouse P2Y14R expressed in HEK293 cells preincubated for 30 mins followed by addition of 6-amino-9-(2-carboxy-4-((6-(4-(4-(4-(4-(3-carboxy-6-(4-(trifluoromethyl)phenyl)naphthalen-1-yl)phenyl)piperidin-1-yl)butyl)-1H-1,2,3-triazol-1-yl)hexyl)carbamoyl)phenyl)-3-iminio-5-sulfo-3H-xanthene-4-sulfonate incubated for 30 mins by BD FACSCalibur flow …. The class given is cell-based.

In series [4] the target is Kappa-type opioid receptor (Homo sapiens, UniProt P41145). Kind of series: Inhibition of KOR (unknown origin) assessed as binding constant.
Chain of Kappa-type opioid receptor (P41145 whole entry): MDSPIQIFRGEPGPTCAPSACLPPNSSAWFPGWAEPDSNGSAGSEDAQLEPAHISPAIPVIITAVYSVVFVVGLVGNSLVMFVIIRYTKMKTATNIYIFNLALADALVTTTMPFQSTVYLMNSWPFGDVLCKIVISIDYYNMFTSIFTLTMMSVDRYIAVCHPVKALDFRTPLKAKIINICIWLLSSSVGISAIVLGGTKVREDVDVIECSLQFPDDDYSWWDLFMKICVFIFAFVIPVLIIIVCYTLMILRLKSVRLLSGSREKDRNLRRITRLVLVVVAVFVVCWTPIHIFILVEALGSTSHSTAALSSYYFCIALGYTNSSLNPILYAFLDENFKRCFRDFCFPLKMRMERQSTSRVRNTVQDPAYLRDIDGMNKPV
Series [5] in a line: Distribution coefficient, logD of compound at pH 7.4 by HPLC analysis. In kind it is physicochemical. Particulars: octanol/water, read-out: logD.
In a further series the target is T2, liver carboxylesterase (Sus scrofa, UniProt Q29550).
T2 sequence (Q29550 whole entry): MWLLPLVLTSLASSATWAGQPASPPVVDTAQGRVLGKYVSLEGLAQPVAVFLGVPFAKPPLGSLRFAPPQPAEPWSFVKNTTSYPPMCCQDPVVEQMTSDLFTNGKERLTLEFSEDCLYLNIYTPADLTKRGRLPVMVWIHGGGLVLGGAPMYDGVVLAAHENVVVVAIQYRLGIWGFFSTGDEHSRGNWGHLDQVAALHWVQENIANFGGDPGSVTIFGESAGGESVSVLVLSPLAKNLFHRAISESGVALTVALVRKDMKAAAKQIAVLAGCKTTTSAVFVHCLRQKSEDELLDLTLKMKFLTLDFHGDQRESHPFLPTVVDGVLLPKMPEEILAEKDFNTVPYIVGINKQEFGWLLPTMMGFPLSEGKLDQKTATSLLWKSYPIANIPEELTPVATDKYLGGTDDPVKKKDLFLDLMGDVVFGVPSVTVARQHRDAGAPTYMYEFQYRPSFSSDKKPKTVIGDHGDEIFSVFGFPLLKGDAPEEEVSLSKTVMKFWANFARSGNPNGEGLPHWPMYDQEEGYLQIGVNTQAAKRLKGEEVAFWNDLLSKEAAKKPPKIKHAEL
Kind of series: Stability of the compound in aqueous medium at pH 7.4 assessed as half life in presence of porcine liver esterase. The class given is physicochemical. The settings on record: pig.

The nature of series [6]: Plasma protein binding in human assessed as bound fraction. In kind it is ADME, cell-free.
A short description of series [7]: Plasma protein binding in mouse assessed as compound remaining at 5 hrs. In kind it is ADME, cell-free.
Series [8] is described as follows: Plasma protein binding in rat assessed as compound remaining at 5 hrs. The class given is ADME, cell-free.

Chain of Beta-3 adrenergic receptor (P13945 whole entry): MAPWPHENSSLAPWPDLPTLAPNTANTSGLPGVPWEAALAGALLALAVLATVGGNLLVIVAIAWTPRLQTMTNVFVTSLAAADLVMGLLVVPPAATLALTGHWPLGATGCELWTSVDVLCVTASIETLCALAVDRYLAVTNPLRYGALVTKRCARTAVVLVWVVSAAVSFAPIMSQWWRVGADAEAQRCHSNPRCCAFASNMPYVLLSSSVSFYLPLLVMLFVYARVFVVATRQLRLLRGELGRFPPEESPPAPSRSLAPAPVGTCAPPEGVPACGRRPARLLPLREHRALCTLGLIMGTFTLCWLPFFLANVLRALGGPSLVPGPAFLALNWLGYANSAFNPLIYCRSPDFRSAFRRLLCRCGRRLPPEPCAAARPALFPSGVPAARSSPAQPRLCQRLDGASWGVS
Chain of Sigma intracellular receptor 2 (Q5BJF2 whole entry): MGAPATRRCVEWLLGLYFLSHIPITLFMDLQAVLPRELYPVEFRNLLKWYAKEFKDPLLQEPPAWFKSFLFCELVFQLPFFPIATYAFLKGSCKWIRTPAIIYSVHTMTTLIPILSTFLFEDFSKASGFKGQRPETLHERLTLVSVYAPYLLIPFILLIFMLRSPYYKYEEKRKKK

The Ki is a dissociation constant, usually derived from enzyme kinetics or from competition with a known ligand. For the compound `O=C(O)c1cc(-c2ccc([C@H]3C[C@H]4C[C@@H]3NC4=O)cc2)c2ccc(-c3ccc(C(F)(F)F)cc3)cc2c1`, the Ki in [1] is above 1000 nM; at Translocator protein, 1400 nM; in series [2] it was 2600 nM; in [3], 1400 nM; at D(1B) dopamine receptor it was above 1000 nM.
By IC50 is commonly meant the concentration at which inhibition is half-maximal. `O=C(O)c1cc(-c2ccc([C@@H]3C[C@@H]4C[C@H]3CN4)cc2)c2ccc(-c3ccc(C(F)(F)F)cc3)cc2c1`: the Ki in series [1] is above 1000 nM; at D(3) dopamine receptor, 1000 nM; on Translocator protein it was 1800 nM; in [2], 2100 nM; in [3], 1200 nM; on D(1B) dopamine receptor it was above 1000 nM. Also, the IC50 on P2Y purinoceptor 14 came to 13.4 nM.
By logD is commonly meant lipophilicity at a set pH, counting ionised and neutral species. In the case of `O=C(O)c1cc(-c2ccc(C3CCNC3)cc2)c2ccc(-c3ccc(C(F)(F)F)cc3)cc2c1` (racemic), the Ki is above 1000 nM in series [4] and 1200 nM in series [3]. In [5], the logD came to 1.9.
The half-life is the time needed for the level to fall by half in the phase considered. In the case of `CN(C)C(=O)COC(=O)c1cc(-c2ccc([C@@H]3C[C@@H]4C[C@H]3NC4=O)cc2)c2ccc(-c3ccc(C(F)(F)F)cc3)cc2c1`, the half-life on liver carboxylesterase was above 72 h. The PPB in series [6] was 99.79%. In series [2], the Ki turned out to be 6900 nM. The Fu in [7] and in [8] was 0% each time.
Turning to `N[C@H]1C[C@@H](CO)[C@H](c2ccc(-c3cc(C(=O)O)cc4cc(-c5ccc(C(F)(F)F)cc5)ccc34)cc2)C1`, the Ki in series [1] was above 1000 nM; at D(3) dopamine receptor, 330 nM; on Translocator protein, 1800 nM; in series [2] it was 1300 nM; in series [3] it was 1100 nM. Also, in [5], the logD was 0.96.
